# Data published in article PMC7007424 (Neurotherapeutics, 2019).
# Entries after “also recorded” stand apart in the source; their conditions may differ. Read-outs that look alike come from different tables or passages of the source. Marks after values point to notes of the source that are not given here.
# Legend:
# PTZ-kindled mice [1] = experiment: elevated plus maze test in PTZ-kindled mice; assay type: in vivo; settings: repeated i.p. injection, AS-1 15–60 mg/kg, VPA 150 mg/kg
# Description: Twenty-four hours after the last PTZ injection (on day 34), mice were subjected to the locomotor activity test, the elevated plus maze test, and the forced swim test. Forty-eight hours after the last PTZ injection (on day 35) the i.v. PTZ seizure threshold test was performed. The elevated plus maze test was used to assess the anxiety-like behavior in kindled animal, as described in detail in our previous study.
# TRPV1 (VR1) (h) = molecular target: T1, TRPV1 (VR1) (h) (Homo sapiens, UniProt Q8NER1); experiment: TRPV1 functional assay (antagonist effect); assay type: cell-based; settings: human recombinant (CHO cells), read-out: % inhibition of control agonist/antagonist response (antagonist effect)
# T1 construct: Cerep Laboratories (contract testing)
# hepatoma HepG2 cells [2] = experiment: hepatotoxicity, HepG2 cell viability; assay type: cell-based
# mice [3] = experiment: passive avoidance task; assay type: in vivo; settings: i.p. 30 min before, AS-1 81.12 mg/kg, VPA […], combination AS-1 27.6 + VPA 59.9 mg/kg
# mice [4] = experiment: grip strength test; assay type: in vivo; settings: i.p. 30 min before, AS-1 81.12 mg/kg, VPA […], combination AS-1 27.6 + VPA 59.9 mg/kg
# From the text: The time before the commencement of the grip strength test (after drug administration) was identical to that of the PTZ test. This experimental procedure has been described in detail in our earlier studies.
# zebrafish larvae = experiment: EEG discharge assessment in zebrafish larvae exposed to PTZ; settings: 5 mM, 20 h incubation, then 20 mM PTZ for 5 min; vs vehicle-incubated control
# [5] = test system: GABA transporter (antagonist radioligand); experiment: GABA transporter binding; settings: 100 μM; rat cerebral cortex
# [6] = test system: 6-Hz (32 mA) psychomotor seizures; settings: mice, i.p.; ref [10], [12]; cited from earlier work
# [7] = metabolic stability on human liver microsomes (HLMs); assay type: in vitro ADME; settings: 120 min incubation with HLMs
# CYP2C9 = CYP2C9 (Homo sapiens, UniProt P11712); settings: 10 μM
# mice [8] = experiment: chimney test; assay type: in vivo; settings: i.p. 30 min before, AS-1 81.12 mg/kg, VPA […], combination AS-1 27.6 + VPA 59.9 mg/kg
# From the text: [31]’s chimney test. The pretreatment time for AS-1 and VPA in the chimney test was identical to that of the PTZ test. This experimental procedure has been described in detail in our earlier studies.
# hepatoma HepG2 cells [9] = settings: 24 h incubation, only at the highest used dose of 100 μM; ref [12]; cited from earlier work
# [10] = test system: NMDA (antagonist radioligand); parameters: method as in Rapacz et al. [12]; settings: rat cerebral cortex, ref Rapacz et al. [12], cited from earlier work
# CYP2D6 = CYP2D6 (Homo sapiens, UniProt P10635)
# Na^+ channel (site 2) = test system: Na^+ channel (site 2); parameters: method as in Rapacz et al. [12]; settings: rat cerebral cortex, ref Rapacz et al. [12], cited from earlier work
# [11] = parallel artificial membrane permeability assay (PAMPA); assay type: in vitro ADME; settings: ± SD, read-out: Pe, permeability coefficient
# PTZ-kindled mice [12] = experiment: locomotor activity test in PTZ-kindled mice; assay type: in vivo; settings: repeated i.p. injection, AS-1 15–60 mg/kg, VPA 150 mg/kg, day 34
# Description: Twenty-four hours after the last PTZ injection (on day 34), mice were subjected to the locomotor activity test, the elevated plus maze test, and the forced swim test. Forty-eight hours after the last PTZ injection (on day 35) the i.v. PTZ seizure threshold test was performed. Spontaneous locomotor activity of mice was monitored using the […] system supported by SedaCom32 software (Panlab/Harvard Apparatus, Barcelona, Spain) according to the method described in detail elsewhere.
# [13] = test system: L-type Ca^2+ (verapamil site, antagonist radioligand); parameters: method as in Rapacz et al. [12]; settings: rat cerebral cortex, ref Rapacz et al. [12], cited from earlier work
# naïve mice = experiment: i.v. PTZ seizure threshold test in naïve mice; assay type: in vivo; settings: acute
# Description: All suspensions and solutions were prepared freshly and administered in a constant volume of 0.1 ml per 10 g of body weight. […] The timed i.v. PTZ test was used to evaluate the changes in seizure threshold in both naïve and kindled mice. The experimental procedure has been described in detail in our earlier studies.
# [14] = test system: fast voltage-gated sodium channels; experiment: patch clamp of sodium currents in prefrontal cortex pyramidal neurons; assay type: cell-based, rats; settings: 100 μM, holding potential − 65 mV, n = 6, p > 0.05
# [15] = test system: PTZ-induced clonic seizures in mice; experiment: s.c. PTZ-induced clonic seizure test, with isobolographic analysis; assay type: in vivo
# Description: Following PTZ administration, mice were placed separately in transparent Plexiglas cages (25 cm × 15 cm × 10 cm) and observed for 30 min for the occurrence of clonic seizures. Clonic seizure activity was defined as the clonus of the whole body lasting for over 3 s, with an accompanying loss of righting reflex.
# To determine the ED50 mix value, both drugs in the mixture (at proportionally raised doses) were administered to the mice and a dose–response relationship for the mixture was denoted using Litchfield and Wilcoxon [25]’s log-probit method. • Statistical comparison of the experimentally derived ED50 mix values with their corresponding theoretically additive ED50 add values was undertaken using the unpaired Student’s t test, according to Tallarida [30]. • Graphical illustration of the examined interactions as isobolograms (i.e., simple forms of interaction visualizations).
# kindled mice = experiment: i.v. PTZ seizure threshold test in kindled mice; assay type: in vivo
# CYP3A4 = CYP3A4 (Homo sapiens, UniProt P08684)
# [16] = test system: 6-Hz-induced seizures (44 mA); experiment: 6-Hz (44 mA) seizure model; assay type: in vivo; settings: Mus musculus, ip; mice, i.p., 30 min before the test; 95% confidence intervals in parentheses
# hERG potassium channel = hERG potassium channel (Homo sapiens, UniProt Q12809); experiment: in vitro
# CB1 (h) = molecular target: T2, CB1 (h) (Homo sapiens, UniProt P21554); experiment: CB1 functional assay (agonist and antagonist effect); assay type: cell-based; settings: human recombinant (CHO cells), read-out: % inhibition of control agonist/antagonist response (antagonist effect)
# T2 construct: Cerep Laboratories (contract testing)
# [17] = test system: N-type Ca^2+ (antagonist radioligand); parameters: method as in Rapacz et al. [12]; settings: 100 μM; rat cerebral cortex; ref Rapacz et al. [12]; cited from earlier work
# [18] = test system: PTZ-induced kindling in mice; experiment: PTZ-induced kindling; assay type: in vivo; settings: 33 daily i.p. injections; AS-1 15, 30 and 60 mg/kg, VPA 150 mg/kg; PTZ 40 mg/kg i.p. every 48 h, 17 injections; vs PTZ-kindled control
# Description: All suspensions and solutions were prepared freshly and administered in a constant volume of 0.1 ml per 10 g of body weight. In all experiments, AS-1 and VPA were injected i.p. Control animals received vehicles only. […] After each PTZ injection, mice were placed separately into transparent cages for 30 min for behavioral observation to assign an appropriate seizure score. […] After each PTZ injection, the mean seizure severity score for each experimental group was calculated. Non-kindled (control) mice were treated as kindled animals, except that they were injected with normal saline instead of PTZ. Experimental grouping for PTZ kindling was as follows: […]
# [19] = test system: L-type Ca^2+ (diltiazem site, antagonist radioligand); experiment: L-type Ca2+ channel (diltiazem site) binding; settings: 100 μM; rat cerebral cortex
# PTZ-kindled mice [20] = experiment: forced swim test in PTZ-kindled mice; assay type: in vivo; settings: repeated i.p. injection, AS-1 15–60 mg/kg, VPA 150 mg/kg, vs kindled control
# Description: Twenty-four hours after the last PTZ injection (on day 34), mice were subjected to the locomotor activity test, the elevated plus maze test, and the forced swim test. Forty-eight hours after the last PTZ injection (on day 35) the i.v. PTZ seizure threshold test was performed. The forced swim test was used to assess the depressive-like behavior in kindled animals. The procedure was performed as described in detail elsewhere.
# [21] = test system: PTZ-induced clonic seizures in mice; settings: i.p., earlier study, ref [10], [12]; cited from earlier work
# [22] = 15 mg/kg i.p., 30 min before the test
# [23] = 30 mg/kg and 60 mg/kg i.p. (p < 0.01 and p < 0.001)
# [24] = repeated i.p. pretreatment 15–60 mg/kg
# Chain of CYP2D6 (P10635 whole entry): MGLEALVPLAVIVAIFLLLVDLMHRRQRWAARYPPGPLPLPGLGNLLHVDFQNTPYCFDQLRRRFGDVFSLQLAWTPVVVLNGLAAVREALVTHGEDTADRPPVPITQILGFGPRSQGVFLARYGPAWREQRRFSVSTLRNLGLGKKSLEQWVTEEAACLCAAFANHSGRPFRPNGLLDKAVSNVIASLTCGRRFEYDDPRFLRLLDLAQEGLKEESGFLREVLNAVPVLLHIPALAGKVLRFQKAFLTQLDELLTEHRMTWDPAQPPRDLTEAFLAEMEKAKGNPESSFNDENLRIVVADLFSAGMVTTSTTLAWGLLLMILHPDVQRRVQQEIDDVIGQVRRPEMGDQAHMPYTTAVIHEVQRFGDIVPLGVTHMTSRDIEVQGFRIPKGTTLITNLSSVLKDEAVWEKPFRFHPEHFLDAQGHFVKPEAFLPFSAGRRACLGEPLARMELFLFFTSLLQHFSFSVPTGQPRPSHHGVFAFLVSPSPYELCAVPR
# Chain of CYP2C9 (P11712 whole entry): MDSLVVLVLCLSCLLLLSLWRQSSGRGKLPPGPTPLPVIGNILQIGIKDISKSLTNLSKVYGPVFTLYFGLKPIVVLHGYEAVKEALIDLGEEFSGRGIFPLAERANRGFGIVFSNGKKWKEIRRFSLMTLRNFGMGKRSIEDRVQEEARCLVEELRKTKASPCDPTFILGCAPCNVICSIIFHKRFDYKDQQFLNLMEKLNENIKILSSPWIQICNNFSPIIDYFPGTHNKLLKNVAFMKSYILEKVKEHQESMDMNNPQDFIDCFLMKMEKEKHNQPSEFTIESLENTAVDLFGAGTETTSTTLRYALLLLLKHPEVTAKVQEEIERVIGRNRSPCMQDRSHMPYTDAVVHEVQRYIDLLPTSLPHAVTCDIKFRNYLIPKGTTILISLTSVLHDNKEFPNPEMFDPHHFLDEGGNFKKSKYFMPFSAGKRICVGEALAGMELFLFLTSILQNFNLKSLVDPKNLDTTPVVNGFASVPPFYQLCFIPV
# T1 sequence (Q8NER1 whole entry): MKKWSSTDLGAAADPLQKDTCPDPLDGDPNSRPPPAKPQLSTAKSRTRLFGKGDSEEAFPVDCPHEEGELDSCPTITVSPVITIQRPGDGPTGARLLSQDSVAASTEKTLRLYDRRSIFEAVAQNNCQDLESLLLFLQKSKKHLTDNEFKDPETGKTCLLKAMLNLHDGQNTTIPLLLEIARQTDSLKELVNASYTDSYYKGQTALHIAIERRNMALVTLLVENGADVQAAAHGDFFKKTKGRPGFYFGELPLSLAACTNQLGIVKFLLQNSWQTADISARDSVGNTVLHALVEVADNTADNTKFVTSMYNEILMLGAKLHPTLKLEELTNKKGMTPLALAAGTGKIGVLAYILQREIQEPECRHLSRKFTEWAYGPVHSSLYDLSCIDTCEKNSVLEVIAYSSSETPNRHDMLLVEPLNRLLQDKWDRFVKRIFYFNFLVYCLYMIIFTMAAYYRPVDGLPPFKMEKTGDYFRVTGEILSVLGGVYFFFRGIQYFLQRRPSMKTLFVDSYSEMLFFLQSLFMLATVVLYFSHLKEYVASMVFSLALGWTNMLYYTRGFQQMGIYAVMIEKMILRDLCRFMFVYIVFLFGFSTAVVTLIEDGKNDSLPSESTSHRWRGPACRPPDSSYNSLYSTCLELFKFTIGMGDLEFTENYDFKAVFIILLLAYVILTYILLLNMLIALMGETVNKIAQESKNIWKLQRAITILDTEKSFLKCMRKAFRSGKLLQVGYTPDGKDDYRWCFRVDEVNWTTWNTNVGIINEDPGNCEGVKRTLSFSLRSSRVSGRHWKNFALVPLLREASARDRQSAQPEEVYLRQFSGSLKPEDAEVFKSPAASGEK
# Chain of CYP3A4 (P08684 whole entry): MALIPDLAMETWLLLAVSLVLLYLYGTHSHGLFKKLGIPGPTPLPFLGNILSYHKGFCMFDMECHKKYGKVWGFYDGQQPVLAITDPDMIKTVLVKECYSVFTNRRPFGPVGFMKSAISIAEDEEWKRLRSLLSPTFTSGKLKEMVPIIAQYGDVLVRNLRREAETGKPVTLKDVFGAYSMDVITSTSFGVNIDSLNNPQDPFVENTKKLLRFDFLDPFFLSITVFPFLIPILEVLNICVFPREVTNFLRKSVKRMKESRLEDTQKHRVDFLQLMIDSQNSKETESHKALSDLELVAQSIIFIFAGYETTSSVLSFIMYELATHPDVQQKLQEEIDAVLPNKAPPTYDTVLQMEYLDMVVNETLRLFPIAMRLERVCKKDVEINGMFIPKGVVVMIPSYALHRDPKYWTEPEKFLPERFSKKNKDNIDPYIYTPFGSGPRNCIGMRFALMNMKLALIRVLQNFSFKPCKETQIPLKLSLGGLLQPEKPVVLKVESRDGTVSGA
# Chain of hERG potassium channel (Q12809 whole entry): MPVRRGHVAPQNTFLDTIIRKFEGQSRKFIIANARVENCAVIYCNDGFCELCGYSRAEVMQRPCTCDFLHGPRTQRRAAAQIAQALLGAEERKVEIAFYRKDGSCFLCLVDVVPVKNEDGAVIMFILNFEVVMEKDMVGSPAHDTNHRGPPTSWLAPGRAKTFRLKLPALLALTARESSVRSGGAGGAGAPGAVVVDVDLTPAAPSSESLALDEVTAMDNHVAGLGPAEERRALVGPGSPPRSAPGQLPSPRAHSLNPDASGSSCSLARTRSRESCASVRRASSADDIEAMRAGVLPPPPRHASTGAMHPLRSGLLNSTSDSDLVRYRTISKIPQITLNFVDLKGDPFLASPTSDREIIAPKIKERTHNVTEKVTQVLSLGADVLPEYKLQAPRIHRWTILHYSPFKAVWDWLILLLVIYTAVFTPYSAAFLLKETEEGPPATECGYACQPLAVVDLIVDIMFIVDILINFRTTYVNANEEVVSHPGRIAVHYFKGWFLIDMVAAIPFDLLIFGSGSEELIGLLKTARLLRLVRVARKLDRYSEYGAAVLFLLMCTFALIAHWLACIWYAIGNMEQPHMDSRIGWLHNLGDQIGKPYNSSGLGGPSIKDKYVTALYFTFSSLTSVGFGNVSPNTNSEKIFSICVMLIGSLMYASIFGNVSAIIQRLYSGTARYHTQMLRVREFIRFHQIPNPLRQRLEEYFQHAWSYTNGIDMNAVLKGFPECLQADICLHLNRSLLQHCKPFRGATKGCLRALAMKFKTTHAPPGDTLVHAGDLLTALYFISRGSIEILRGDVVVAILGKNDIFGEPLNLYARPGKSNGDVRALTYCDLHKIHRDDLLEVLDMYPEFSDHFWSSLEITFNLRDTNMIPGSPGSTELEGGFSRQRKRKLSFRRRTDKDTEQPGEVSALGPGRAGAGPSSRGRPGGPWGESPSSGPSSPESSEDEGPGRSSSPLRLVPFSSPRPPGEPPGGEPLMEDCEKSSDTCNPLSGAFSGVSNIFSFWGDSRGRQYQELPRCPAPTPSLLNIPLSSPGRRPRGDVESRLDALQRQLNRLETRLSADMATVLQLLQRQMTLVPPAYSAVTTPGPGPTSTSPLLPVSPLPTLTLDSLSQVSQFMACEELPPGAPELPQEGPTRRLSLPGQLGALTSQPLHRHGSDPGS
# T2 sequence (P21554 whole entry): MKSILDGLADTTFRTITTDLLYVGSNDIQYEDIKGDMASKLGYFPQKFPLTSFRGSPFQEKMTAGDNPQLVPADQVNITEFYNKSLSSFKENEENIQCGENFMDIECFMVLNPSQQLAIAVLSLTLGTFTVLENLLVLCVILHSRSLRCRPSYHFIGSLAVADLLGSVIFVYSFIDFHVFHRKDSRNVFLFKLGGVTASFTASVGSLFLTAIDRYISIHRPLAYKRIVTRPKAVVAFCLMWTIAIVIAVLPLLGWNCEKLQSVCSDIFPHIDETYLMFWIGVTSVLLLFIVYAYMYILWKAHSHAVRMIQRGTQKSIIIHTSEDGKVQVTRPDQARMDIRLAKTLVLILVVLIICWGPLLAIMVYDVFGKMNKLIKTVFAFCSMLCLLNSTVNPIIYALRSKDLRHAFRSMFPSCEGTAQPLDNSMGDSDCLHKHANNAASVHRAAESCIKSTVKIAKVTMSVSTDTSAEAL
smiles,measurement,setting,value
"CC(C(=O)NCc1ccccc1)N1C(=O)CCC1=O (stereo not shown) [AS-1, N-benzyl-2-(2,5-dioxopyrrolidin-1-yl)propanamide]",effect on percentage of open arm entries and percentage of time spent in open arms,PTZ-kindled mice [1],did not produce any significant changes
same,inhibition at 100 µM,TRPV1 (VR1) (h),4.3%
same,HepG2 viability,"hepatoma HepG2 cells [2]; 100 μM, 72 h incubation, ± SD",82.3 ± 6.5^a Percentage of control
same,effect on HepG2 cells' viability,"hepatoma HepG2 cells [2]; only at the highest concentration used of 100 μM, 72 h, p < 0.05",slight but statistically significant effect
same,"Retention time, median (25th; 75th percentiles)",mice [3],180 (146; 180) s
same,"Muscular strength, mean grip strength ± SEM",mice [4],99.9 ± 2.2 g
same,effect on number of epileptiform discharges during 20 min,zebrafish larvae,significantly reduced
same,% inhibition of control-specific binding,[5],2.4 (100) %
same,"ED50 (6 Hz, 32 mA)",[6],24.66 mg/kg
same,Phase I metabolism in human (metabolites by UPLC),[7],no presence of metabolites; also recorded: No metabolites found
same,CYP2C9 activity,CYP2C9,67.0 ± 3.6^a Percentage of control
same,"Motor coordination, percentage of animals showing motor coordination impairment",mice [8],0%
same,effect on HepG2 cells,hepatoma HepG2 cells [9],"weak, statistically significant toxic effect"
same,% inhibition of control-specific binding,[10]; 100 μM,15.0%
same,% inhibition of control-specific binding,[10]; 200 μM,35.0%
same,effect on CYP2D6 activity,CYP2D6,No significant effect
same,CYP2D6 activity,"CYP2D6; human, 10 μM",104.4 ± 0.5^a Percentage of control
same,% inhibition of control-specific binding,Na^+ channel (site 2); 100 μM,15.9%
same,% inhibition of control-specific binding,Na^+ channel (site 2); 500 μM,56.0%
same,Papp,[11],9.8 ± 2 ×10⁻⁶ cm/s
same,effect on spontaneous locomotor activity,PTZ-kindled mice [12],did not affect locomotor activity
same,% inhibition of control-specific binding,[13]; 100 μM,15.0%
same,% inhibition of control-specific binding,[13]; 500 μM,45.0%
same,effect on threshold for generalized clonus,naïve mice; [22],did not affect significantly
same,effect on threshold for the first myoclonic twitch,naïve mice; [22],did not affect significantly
same,effect on threshold for generalized clonic seizure,naïve mice; [23],raised the thresholds
same,effect on threshold for the first myoclonic twitch,naïve mice; [23],raised the thresholds
same,effect on susceptibility to PTZ-induced forelimb extension (forelimb tonus threshold),naïve mice; 15–60 mg/kg i.p.,did not affect
same,maximal amplitude of sodium currents normalized to control (1.0 in control),[14],0.93 ± 0.06
same,ED50,"[15]; Mus musculus, drug alone i.p. 30 min before s.c. PTZ 100 mg/kg, ± SEM, read-out: ED50 against PTZ-induced clonic seizures",81.1 ± 10.4 mg/kg
same,effect on seizure threshold for the first myoclonic twitch,"kindled mice; repeated i.p. injection of 60 mg/kg, 48 h after last PTZ, vs non-kindled control",significantly increased the seizure threshold
same,effect on threshold for forelimb tonus,kindled mice; [24],No changes
same,effect on threshold for generalized clonus,kindled mice; [24],No changes
same,effect on CYP3A4 activity,CYP3A4,No significant effect
same,ED50,[16],75.4 mg/kg
same,inhibition at 100 µM,hERG potassium channel,0.8%
same,inhibition at 100 µM,CB1 (h),5.6%
same,% inhibition of control-specific binding,[17],0.2 (100) %
same,effect on kindling development (mean seizure severity score),[18],significantly suppressed kindling development
same,% inhibition of control-specific binding,[19],10.2 (100) %
"CCCC(CCC)C(=O)O [VPA, valproic acid, reference compound]",effect on percentage of open arm entries and percentage of time spent in open arms,PTZ-kindled mice [1],did not produce any significant changes
same,effect on total immobility duration,PTZ-kindled mice [20],significantly decreased the immobility time
same,"Retention time, median (25th; 75th percentiles)",mice [3],180 (180; 180) s
same,"Muscular strength, mean grip strength ± SEM",mice [4],104.7 ± 2.8 g
same,ED50 (s.c. PTZ),[21],239.45 mg/kg
same,"ED50 (6 Hz, 32 mA)",[6],130.65 mg/kg
same,"Motor coordination, percentage of animals showing motor coordination impairment",mice [8],12.5%
same,effect on spontaneous locomotor activity,PTZ-kindled mice [12],did not affect locomotor activity
same,protection against PTZ-induced clonic seizures,[15]; 125 mg/kg i.p.,12.5%
same,protection against PTZ-induced clonic seizures,[15]; 150 mg/kg i.p.,37.5%
same,protection against PTZ-induced clonic seizures,[15]; 200 mg/kg i.p.,62.5%
same,effect on kindling development (mean seizure severity score),[18],suppressed kindling progression
